The results in this text go back to article PMC4195764, “Molecular mechanism of ligand recognition by membrane transport protein, Mhp1” (The EMBO Journal, 2014).

For assay [1], the target named is T1, Mhp1 (Microbacterium maritypicum, UniProt D6R8X8).
T1 sequence (D6R8X8 1-489): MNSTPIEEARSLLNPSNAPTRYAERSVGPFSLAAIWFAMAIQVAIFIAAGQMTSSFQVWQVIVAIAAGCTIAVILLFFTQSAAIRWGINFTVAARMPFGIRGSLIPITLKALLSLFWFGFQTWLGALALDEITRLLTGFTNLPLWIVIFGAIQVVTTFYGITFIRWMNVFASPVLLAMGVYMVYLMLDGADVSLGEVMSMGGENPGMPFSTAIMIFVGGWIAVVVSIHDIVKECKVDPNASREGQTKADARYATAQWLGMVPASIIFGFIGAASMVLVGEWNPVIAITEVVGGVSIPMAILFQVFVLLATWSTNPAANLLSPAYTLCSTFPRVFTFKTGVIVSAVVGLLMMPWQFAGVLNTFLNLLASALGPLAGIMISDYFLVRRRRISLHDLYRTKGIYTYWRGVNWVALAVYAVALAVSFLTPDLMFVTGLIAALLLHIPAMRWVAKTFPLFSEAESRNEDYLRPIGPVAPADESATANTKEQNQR
The experiment in a line: inhibition of […]-L-IMH uptake into E. coli cells expressing Mhp1. It counts as cell-based. Also on record: gene hyuP; full-length membrane protein expressed in E. coli BL21(DE3) from pSHP11. To be noted: read-out: Apparent IC5_0.

Assay [2] addresses T1, Mhp1. The experiment in a line: stopped-flow tryptophan spectrophotofluorimetry. It counts as binding. Also on record: gene hyuP; full-length membrane protein expressed in E. coli BL21(DE3) from pSHP11; GFP-fusion purified for crystallography (details in supplement). Conditions: read-out: Apparent Kd. The text has this:
stopped-flow tryptophan spectrophotofluorimetry on Mhp1

For assay [3], the target named is T2, Mhp1 (Microbacterium maritypicum, UniProt D6R8X8, L363A).
T2 construct: gene hyuP; full-length membrane protein expressed in E. coli BL21(DE3) from pSHP11; GFP-fusion purified for crystallography (details in supplement)
T2 sequence (D6R8X8 whole entry L363A, the tested form may be a part): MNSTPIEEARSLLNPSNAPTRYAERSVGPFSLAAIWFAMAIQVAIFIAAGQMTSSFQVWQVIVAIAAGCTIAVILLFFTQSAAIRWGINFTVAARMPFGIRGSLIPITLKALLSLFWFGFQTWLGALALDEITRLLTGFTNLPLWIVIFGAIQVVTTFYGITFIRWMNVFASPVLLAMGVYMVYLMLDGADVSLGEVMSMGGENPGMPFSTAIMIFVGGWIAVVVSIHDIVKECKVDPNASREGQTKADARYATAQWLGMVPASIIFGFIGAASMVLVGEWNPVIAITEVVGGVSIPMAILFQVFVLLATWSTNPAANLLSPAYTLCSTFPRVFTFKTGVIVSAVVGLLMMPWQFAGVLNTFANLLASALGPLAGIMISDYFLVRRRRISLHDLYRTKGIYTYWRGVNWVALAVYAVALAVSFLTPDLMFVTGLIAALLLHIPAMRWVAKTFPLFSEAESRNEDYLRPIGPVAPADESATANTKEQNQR
The assay can be described thus: uptake of […]-L-NMH into E. coli cells expressing mutant. It counts as cell-based. To be noted: 50 μM labelled compound, 150 mM NaCl, pH 6.6, 15 s; not transported by wild type.

For `O=C1NC(=O)C(=Cc2cccc(Br)c2)N1` (stereo in doubt) [BVH, (5E)-5-[(3-bromophenyl)methylidene] imidazolidine-2,4-dione], on Mhp1 [1], the IC50 amounted to 38.8 ± 1.1 µM. On Mhp1 [2], the Kd is 2 ± 0.2 µM.

Regarding `O=C1NC(=O)[C@@H](Cc2ccccc2)N1` [D-BH], the Kd on Mhp1 [2] was found to be 130 ± 10 µM.

In the case of `O=C1NC(=O)[C@@H](Cc2c[nH]c3ccccc23)N1` [D-IMH], on Mhp1 [2], the Kd was found to be 20.6 ± 3.8 µM.

`O=C1NC(=O)[C@@H](Cc2ccc3ccccc3c2)N1` [D-NMH]: on Mhp1 [1], the IC50 amounted to 17.1 ± 1.1 µM. In addition, the Kd on Mhp1 [2] stood at 1.8 ± 0.3 µM.

`O=C1NC(=O)[C@H](Cc2ccccc2)N1` [L-BH, (5S)-5-benzylimidazolidine-2,4-dione]: the IC50 on Mhp1 [1] was determined as 945 ± 1.1 µM. Further, at Mhp1 [2], the Kd amounted to 36 ± 1.4 µM.

Consider `O=C1NC(=O)[C@H](Cc2c[nH]c3ccccc23)N1` [L-IMH, (5S)-5-(1H-indol-3-ylmethyl)imidazolidine-2,4-dione], for which the IC50 at Mhp1 [1] amounted to 119.2 ± 1.1 µM. Also, the Kd on Mhp1 [2] came to 19 ± 2 µM.

On to `O=C1NC(=O)[C@H](Cc2ccc3ccccc3c2)N1` [L-NMH, (5S)-5-(naphthalen-2-ylmethyl)imidazolidine-2,4-dione], for which, on Mhp1 [3], the “uptake of 14C-L-NMH into E. coli cells expressing mutant” value was “when Leu363 was mutated to an alanine, uptake was restored”. Further, the IC50 on Mhp1 [1] is 14.9 ± 1.1 µM. Further, the Kd at Mhp1 [2] came out at 3.6 ± 0.8 µM.
